Key:
IGF-1 receptor = assay: IGF-1 assay: displacement of [125I] ligand from human placental membranes; assay type: binding; conditions: relative to IGF-1 = 100, human placental membrane protein, 24 hours at 4°C, from EC50 values of displacement curves
Experimental: (§1) Measurements of insulin and IGF-1 activities were accomplished in substantial accordance with the teaching of Gruppuso, et al. (1988) J. of Clin. Endocrin. and Metab. 67:194-197. Briefly, 30-50 µg of human placental membrane protein was incubated with approximately 10 femtomoles of [^125I] ligand in a final volume of 500 µl of 100 mM HEPES, pH 7.8, 120mM NaCl, 5mM KCl, 1.2mM MgSO4, 8mM glucose and 0.25% BSA for 24 hours at 4°C. Membranes were collected on glass fiber filters pre-treated with 0.1% polyethyleneimine by using a cell harvester (Skatron, Lier, Norway). Binding data were analyzed by fitting displacement curves to a four parameter model employing Prefit/Allfit® software for the determination of EC50 values.

insulin receptor = assay: Insulin assay: displacement of [125I] ligand from human placental membranes; assay type: binding; conditions: relative to human insulin = 100, human placental membrane protein, 24 hours at 4°C, from EC50 values of displacement curves
Experimental: as §1

%IGF-1 Activity (IGF-1 receptor): 23%
%Insulin Activity (insulin receptor): 34%
Substance: bCa: single-chain human insulin B-chain and A-chain joined by Bridging Peptide GLY-TYR-GLY-SER-SER-SER-ARG-ARG-ALA-PRO-GLN-THR; made by solid-phase synthesis

— patent publication EP0741188A2, “Single chain insulin with high bioactivity” (ELI LILLY AND COMPANY, priority 1995, dated 1996)
